# A melting point compilation (Tetko et al.; mined from patent text by program, amines drawn as free bases though some values may be those of a salt)
row,Structure (SMILES),melting point
1,Cc1cc(C(C)(C)C)c(O[Si](C)(C)Cl)c(C(C)(C)C)c1,119 to 121 °C
2,CC(C)(C)CC(C)(C)c1cc(-n2nc3ccc(Cl)cc3n2)c(O)c(C(C)(C)c2ccccc2)c1,104 to 105 °C
3,C=CC(=O)OCCCCCCCCOc1ccc(-c2ccc(OCCCCCCCCOC(=O)C=C)c(F)c2)cc1F,56.1 to 57.9 °C
4,CC(=O)N1CCN=C1COc1cccc(C)c1C,127 to 130 °C
5,CC(=O)C1(O)CCC2C3C=C(C)C4=CC(=O)CCC4(CO)C3CCC21C (stereo not drawn),184 to 186 °C
6,OCCOC12CC(CO)CNC1Cc1c[nH]c3cccc2c13 (stereo not drawn),198 to 205 °C
7,OC1CSC(Oc2ccc(-c3ccoc3)nc2)C(O)C1O (stereo not drawn),132 °C
8,COc1ccc(CCNC(C)(C)CO)cc1,114 to 115 °C
9,Cc1cc(-c2ccnc(Cl)c2)n(-c2ccc(Cl)cc2)n1,110 °C
10,Cc1nc(N)c2nc(C)n(NC(C)C)c2c1C,203 to 205 °C
11,COc1cc2c(cc1Br)CC=C2CCNC(C)=O,146 to 148 °C
12,O=C(Nc1ccc(Cl)cc1)ONC1=Nc2ccc(Cl)cc2C(c2ccccc2)=NC1,200 to 203 °C
13,CCOC(=O)C=Cc1ccc2c(c1)c(-c1cc3cccnc3n1S(=O)(=O)c1ccc(C)cc1)cn2C,159 to 162 °C
14,COC(=O)C=C(c1ccc(C#N)cc1)n1ccnc1,144 to 147 °C
15,CCOC(=O)c1c[nH]c(=S)n1C1CCc2cc(F)cc(F)c2C1 (stereo not drawn),187 to 189 °C
16,CCCCCC(=O)NCCc1ccc(S(=O)(=O)NC(=O)c2ccc(C(=O)NCC(=O)OC)nc2)cc1,128 to 130 °C
17,COc1ccc(/C=C/c2ccc3c(Nc4cc(OC)c(Cl)cc4Cl)c(C#N)cnc3c2)cc1,216 to 220 °C
18,C=Cc1nc2cc(Br)ccc2o1,55 to 56 °C
19,O=[N+]([O-])c1ccc2c(c1-c1n[nH]cc1Cl)OC(F)(F)O2,180 °C
20,COc1ccc(C(O)C(=S)N(C)C)cc1 (stereo not drawn),101 °C
21,CCNC(=O)c1c([Si](C)(C)C)ccc(C)c1Cl,120 to 122 °C
22,OC(c1ccccc1)(c1ccccc1)c1ccncc1,238 to 240 °C
23,Nc1nc(Cl)nc2c1ncn2COCCO,188 to 190 °C
24,CN1C2CCC1CN(c1ccc(-c3cccs3)nn1)C2,156 °C
25,CCOc1cc2c(cc1OCC)C(C(C#N)SCCO)=NCC2 (stereo not drawn),94 to 96 °C
26,CCN(CC)C(=O)c1c(O)cc(C(F)(F)F)cc1-c1ccc(OC)c(OC)c1,161 °C

row,Structure (SMILES),melting point
1,NS(=O)(=O)c1ccccc1CCl,156 to 158 °C
2,CCCCC(CC)n1c(CC)nc2c(-c3c(C)cc(C)cc3C)ncnc21 (stereo not drawn),99 to 100 °C
3,Cc1ccccc1CCc1nc2cc(Cl)c(S(N)(=O)=O)cc2[nH]1,205 to 208 °C
4,Cc1c(C(F)(F)F)cnn(-c2cc(OCC3CCCCC3)c(Cl)cc2F)c1=O,90.2 °C
5,CCOC(=O)c1sc(NC(=O)c2ccc(C)cc2)nc1C(F)(F)C(F)(F)F,202 to 203 °C
6,COc1ccc(/C(=N\O)c2cccc(NS(=O)(=O)N(C)C)c2)cc1,160 to 161 °C
7,O=C(O)c1csnc1-c1cc(S)cc(Cl)c1,150 to 160 °C
8,CSc1nn(-c2c(Cl)cc(Cl)cc2Cl)c(N(C)C)c1CO,108 to 110 °C
9,CCOC(CBr)(OCC)c1csc(NC(=N)N)n1,157 to 158 °C
10,CN(C)C1CCc2[nH]c3c(CO)cccc3c2C1 (stereo not drawn),227 to 230 °C
11,Oc1cc(F)cc(C2(O)CCOCC2)c1,158 to 160 °C
12,CC(=Nc1ccc(C2=NNC(=O)CC2C)cc1)c1ccc(O)cc1O (stereo not drawn),185 to 190 °C
13,CCCCCS(=O)(=O)NC(=O)CCc1cc(C(C)(C)C)nn1Cc1ccc(C(F)(F)F)cc1Cl,136 to 137 °C
14,C=CCOC(=O)C(C)N(C(=O)CCl)c1c(C)cccc1C (stereo not drawn),55 to 56 °C
15,Cc1ccc2c(c1)/C(=N\NC(N)=O)C(=O)N2CCCN(C(C)C)C(C)C,145 to 148 °C
16,CC(C)(C)NCC(O)c1cccc(C#N)c1F (stereo not drawn),88 to 90 °C
17,CC(C)(C)OC(=O)N1CC(=O)Nc2cccc(F)c21,155 to 156 °C
18,O=C1NC(=O)C2(c3ccc4ncccc4n3)C=CC=CC12 (stereo not drawn),206 °C
19,Oc1nc2cc(F)ccc2n2c(C(F)(F)F)nnc12,298 to 302 °C
20,CCc1noc(-c2ncn3c2c(=O)n(CC)c2ncccc23)n1,221 °C
21,COc1cc(CCNC(=O)C(F)(F)F)ccc1N,80 to 81 °C
22,CN1Cc2c(C(=O)NN)ncn2-c2ccc(F)cc2C1=O,288 to 290 °C
23,CC(=O)NC1C(O)OC(COC(C)=O)C(O)(C(C)=O)C1OC(C)C(=O)O (stereo not drawn),85.8 to 90.8 °C
24,CCCCNc1c(C(=O)OCC)cnc2c1c(C)nc1cc(C)nn12,114 to 116 °C
25,NS(=O)(=O)c1cnccc1C1=NOCCO1,163 to 164 °C
26,Clc1ncccc1-c1cccnc1,92 to 93.5 °C

# More lines, now with the values ahead:
row,melting point,Structure (SMILES)
1,139 to 141 °C,CON1CCC2(CC1)C(OCc1ccccc1)=C(c1c(C)cc(C)cc1C)C(=O)N2C
2,160 to 162 °C,COC(=S)NCc1cn(-c2ccc(-n3ccc(C=O)c3)cc2)nn1
3,245 °C,O=C(Nc1ccc2[nH]c(=O)n(CCCCN3CC=C(c4ccccc4)CC3)c(=O)c2c1)C(F)(F)F
4,153 to 154 °C,CN(C)C(=O)CC1CN=C(c2cc3cccc(N(C)S(=O)(=O)c4cccs4)c3[nH]2)S1 (stereo not drawn)
5,78 to 80 °C,CCOC(=O)/C=C/c1cccc(C2CCCC2)c1OCCc1ccccc1
6,97 to 98 °C,CCOC(=O)c1sc(Cc2ccccc2)nc1O
7,246 to 248 °C,CC(C)c1[nH]n(-c2c(Cl)cc(Cl)cc2Cl)c2nc(C(O)c3ccccc3)nc(=O)c1-2 (stereo not drawn)
8,117 to 119 °C,CSCCNC(=O)N(C)c1cnc(-c2cncc(F)c2)s1
9,196 to 197 °C,N#Cc1n[nH]c2nc(N3CCCNCC3)ccc12
10,108 to 112 °C,O=C(O)Cc1ccc(OCCNC(=O)C2Cc3ccccc3N2S(=O)(=O)c2ccc(-c3cc(C(F)(F)F)ccc3Cl)cc2)c(Cl)c1 (stereo not drawn)
11,123 to 125 °C,Clc1ccc(-c2c(Cl)nc(Cl)nc2-c2ccccc2)cc1
12,125 °C,COC(=O)c1ccc(CC(C)(C)NCC(O)c2ccccc2)cc1 (stereo not drawn)
13,194 to 202 °C,O=C1CCc2c(ccc3ccc(O)cc23)O1
14,189 °C,Cc1cc(Nc2ccnc(Nc3ccc(S(=O)(=O)N(CC4CCCO4)C4CCN(C)CC4)cc3)n2)ccc1F (stereo not drawn)
15,104 to 105 °C,O=c1[nH]nc(COc2ccccc2)s1
16,188 to 189 °C,CN1C(=O)CC[C@]2(C)c3ccc(Sc4nc5ccccc5s4)cc3CC[C@@H]12
17,124 °C,COC(=O)n1cc(C)c2c(OCc3ccccc3)c(OC)ccc21
18,125 to 127 °C,CC(=O)OC1CCCc2cnc3ccc(OCc4ccccc4[N+](=O)[O-])cc3c21 (stereo not drawn)
19,94.5 to 96.5 °C,Cn1cc(C(=O)OCC23CCCN(CC2)C3)c2ccccc21 (stereo not drawn)
20,141 °C,CCn1cc(C(=O)Nc2ccc(C(C)C)cc2)cn1
21,134 to 135 °C,Clc1ccnc(Nc2ccccc2)n1
22,> 250 °C,O=C1Cn2nc(-c3ccc(F)cc3)c(-c3ccncc3)c2N1
23,105 to 107 °C,COc1ccc2c(c1)c(CC(=O)N(C(=O)NC1CCCCC1)C1CCCCC1)c(C)n2-c1ncnc2cc(Cl)ccc12
24,147 to 150 °C,CCCc1nc2c(N)nc3ccccc3c2n1CCCON=C(C)C
25,184 to 185 °C,O=C(NCc1ccccc1)Nc1nnc(-c2ccc(CN3CCCCCC3)s2)o1
26,118 to 119 °C,CCCCc1ncc(C=C2C(=O)N(CC(=O)OCC)c3ccccc32)n1Cc1ccc(C(=O)OC)cc1

row,melting point,Structure (SMILES)
1,90 °C,CN(C(=O)COc1cc(-c2ccccc2)nc2ccccc12)C(C)(C)C
2,51.5 to 53 °C,Cc1ccc(C)c(OCc2ccccc2CC#N)c1
3,87 to 88 °C,O=C(NN1CCCC1=O)C(O)=CC(=O)c1cc(Cc2ccc(F)cc2F)cn(Cc2ccc(F)cc2)c1=O
4,121 to 123 °C,COc1ccc(-c2cnc(C#N)nc2)cc1OC1CCCC1
5,112 to 114 °C,CC(=O)N1CCC(NC(=O)Nc2cccc(F)c2)CC1
6,99 to 100 °C,O=C(O)c1ccc(Oc2ccc3c(c2)CCN(CCN2CCCC2)C3=O)cc1
7,78 to 79 °C,CCc1nccn1-c1nc(-c2ccc(Cl)cc2)c(CCCOc2ccccc2OC)o1
8,210 °C,N#CC1=C(c2ccc(Cl)s2)Nc2n[nH]cc2C1c1cccc2nonc12 (stereo not drawn)
9,92 to 93 °C,COc1cc(CCCCC2OC(=O)NC2=O)ccc1OCc1ccccc1 (stereo not drawn)
10,180 to 181 °C,CC(C)c1nnnn1-c1cc(C(=O)O)cc(-c2ccc(Cl)cn2)c1
11,140 to 141 °C,CCS(=O)(=O)c1cc(C(=O)NCC2CCCN2CC2CCCC2)c(OC)cc1N (stereo not drawn)
12,106 to 110 °C,CC(N)(Cc1c[nH]c2ccccc12)C(=O)NCCc1ccccc1 (stereo not drawn)
13,243 to 245 °C,CN(Cc1cccc2c1C(=O)N(C1CCC(=O)NC1=O)C2=O)C(=O)NC1CCCCC1 (stereo not drawn)
14,233 to 234 °C,N#CCc1c[nH]c2ccc(NC(=O)NC3CCCCC3)cc12
15,274 to 276 °C,O=C(CCCOc1ccc(C=Cc2ccncc2)cc1)Nc1nnn[nH]1
16,148 °C,O=C(O)c1cccnc1NCc1ccccc1
17,224 to 225 °C,CN1C[C@@H]2C[C@@]1(C(=O)c1ccc(-c3[nH]nc4c3C(=O)c3c(NC(=O)NN5CCOCC5)cccc3-4)s1)CN2
18,143 to 144 °C,COc1ccc(Cn2c(O)nc3c(-c4ccco4)ncnc32)cc1
19,158 to 160 °C,CCNC(=O)N(O)C(c1ccccc1)c1cc(C(C)(C)C)c(O)c(C(C)(C)C)c1 (stereo not drawn)
20,144 to 145 °C,CC(C(=O)O)c1ccc(-c2ccccc2)cc1 (stereo not drawn)
21,130 to 131 °C,CCCCN(Cc1c(O)ccc2ccccc12)Cc1c(O)ccc2ccccc12
22,178 to 180 °C,C#CCN1C(=O)C(CC#N)C(CC)(CC)N=C1c1ccccc1 (stereo not drawn)
23,228 °C,O=C(Nc1ccc(N2CCOCC2=O)cc1)[C@H]1CCCN1C(=O)Nc1ccc(Cl)cc1
24,103 to 106 °C,Cc1cc(C)cc(C(=O)c2c(-c3ccc(OCCCN(C)C)cc3)oc3ccccc23)c1
25,129 to 130 °C,CCc1cc(NCc2ccc(-n3cccc3-c3nnn[nH]3)cc2)n2nccc2n1
